Measurements reported in patent US11028090B2 (Dong Wha Pharm. Co., Ltd., priority 2017, dated 2021).
Where “and” joins values, the source holds several entries; their conditions need not be identical. Equal entries are not always repeated. Where two headings read alike, the source gives them in different places.

Molecular target: BRD4 (BD1+BD2) bromodomain (Homo sapiens (Human), UniProt O60885)
Experiment: BRD4 binding inhibition (AlphaScreen, GST-BRD4 vs tetraacetylated histone H4 peptide)
How it was run: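 GST-BRD4 (BD1+BD2) and biotinylated tetraacetyl-histone H4 peptide, each at 100 nM in HEPES pH 7.4 buffer with BSA and DTT, were combined with compound. Glutathione acceptor and streptavidin donor beads were added, then incubated 30 min at room temperature in the dark. Read-out was AlphaScreen signal.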

[1] = GST-BRD4 (BD1+BD2) / biotinylated acetyl-histone H4 (Lys5,8,12,16) peptide, read-out: IC50, BRD4 binding inhibition
[2] = GST-BRD4 (BD1+BD2) vs biotinylated acetyl-histone H4 peptide, AlphaScreen, read-out: BRD4 IC50

Row | SMILES | IC50 [1] [µM] | IC50 [2]
1 | Cc1nnc2c(NCCCCNC(=O)c3ccc(Cl)cc3)nc3ccccc3n12 [Example 14, 4-chloro-N-[4-(1-methyl-[1,2,4]triazolo[4,3-a]quinoxaline-4-ylamino)-butyl]-benzamide] | ≤ 0.05 | 0.041 µM
2 | COc1ccc2c(c1)nc(NCCCCC(=O)NCc1ccccc1)c1nnc(C)n12 [Example 658] | ≤ 0.05 | 0.026 µM
3 | Cc1nnc2c(NCCCCN)nc3cc(OC(C)C)ccc3n12 [Example 448, N^1-(7-isopropoxy-1-methyl-[1,2,4]triazolo[4,3-a]quinoxaline-4-yl)-butane-1,4-diamine ditrifluoroacetic acid] | ≤ 0.01 | 0.005 µM
4 | COCCOc1ccc2c(c1)nc(NCCCCNC(=O)[C@@H](N)C(C)C)c1nnc(C)n12 (stereo in doubt) [Example 397, 2-amino-N-{4-[7-(2-methoxy-ethoxy)-1-methyl-[1,2,4]triazolo[4,3-a]quinoxaline-4-ylamino]-butyl}-3-methyl-butyramide] | ≤ 0.05 | 0.029 µM
5 | COc1cc2c(cc1C)nc(NCCCCNC(=O)c1ccccc1)c1nnc(C)n12 [Example 154, N-[4-(8-methoxy-1,7-dimethyl-[1,2,4]triazolo[4,3-a]quinoxaline-4-ylamino)-butyl]-benzamide] | – | 0.078 µM
6 | CCOC(=O)CC(=O)NCCCCNc1nc2cc(OC)ccc2n2c(C)nnc12 [Example 305, N-[4-(7-methoxy-1-methyl-[1,2,4]triazolo[4,3-a]quinoxaline-4-ylamino)-butyl]-malonamic acid ethylester] | ≤ 0.05 | 0.041 µM
7 | COc1ccc2c(c1)nc(NCCCCNC(=O)OC(C)C)c1nnc(C(F)(F)F)n12 [Example 589, [4-(7-methoxy-1-trifluoromethyl-[1,2,4]triazolo[4,3-a]quinoxaline-4-ylamino)-butyl]-carbamic acid isopropylester] | ≤ 0.05 | 0.046 µM
8 | Cc1nnc2c(NCCCCC(=O)NC(C)C)nc3ccccc3n12 [Example 659, 5-(1-methyl-[1,2,4]triazolo[4,3-a]quinoxaline-4-ylamino)-pentanoic acid isopropylamide] | – | 0.075 µM
9 | CCNC(=O)NCCCCNc1nc2cc(OC)c(OC)cc2n2c(C)nnc12 [Example 89, 1-[4-(7,8-dimethoxy-1-methyl-[1,2,4]triazolo[4,3-a]quinoxaline-4-ylamino)-butyl]-3-ethyl-urea] | ≤ 0.05 | 0.047 µM
10 | Cc1nnc2c(NCCCCNC(=O)CC(C)C)nc3cc(OCc4ccc(-c5nn[nH]n5)cc4)ccc3n12 [Example 348, 3-methyl-N-(4-{1-methyl-7-[4-(2H-tetrazol-5-yl)-benzyloxy]-[1,2,4]triazolo[4,3-a]quinoxaline-4-ylamino}-butyl)-butyramide] | – | 0.1 µM
11 | COCCOc1ccc2c(c1)nc(NCCCCNC(=O)c1ccncc1)c1nnc(C)n12 [Example 418, N-{4-[7-(2-methoxy-ethoxy)-1-methyl-[1,2,4]triazolo[4,3-a]quinoxaline-4-ylamino]-butyl}-isonicotinamide] | ≤ 0.05 | 0.049 µM
12 | COCCOc1ccc2c(c1)nc(NCCCCNC(=O)OC(C)(C)C)c1nnc(C)n12 [Example 363, {4-[7-(2-methoxy-ethoxy)-1-methyl-[1,2,4]triazolo[4,3-a]quinoxaline-4-ylamino]-butyl}-carbamic acid-tert-butylester] | ≤ 0.05 | 0.016 µM
13 | Cc1nnc2c(NCCCCNC(=O)OC(C)(C)C)nc3ccc([N+](=O)[O-])cc3n12 [Example 541, [4-(1-methyl-8-nitro-[1,2,4]triazolo[4,3-a]quinoxaline-4-ylamino)-butyl]-carbamic acid-tert-butylester] | ≤ 0.05 | 0.037 µM
14 | COc1cc(C)c2c(c1)nc(NCCCCNC(=O)OC(C)C)c1nnc(C)n12 [Example 457, [4-(7-methoxy-1,9-dimethyl-[1,2,4]triazolo[4,3-a]quinoxaline-4-ylamino)-butyl]-carbamic acid-isopropylester] | ≤ 0.05 | –

Other lines, results leading:

Row | IC50 [1] [µM] | IC50 [2] | SMILES
15 | ≤ 0.05 | – | CC(=O)Nc1ccc2nc(NCCCCNC(=O)OC(C)(C)C)c3nnc(C)n3c2c1 [Example 546, [4-(8-acetamino-1-methyl-[1,2,4]triazolo[4,3-a]quinoxaline-4-ylamino)-butyl]-carbamic acid-tert-butylester]
16 | ≤ 0.01 | 0.004 µM | COc1ccc2nc(NCCCCNC(=O)[C@@H](O)C(C)C)c3nnc(C)n3c2c1 [Example 126, 2-(S)-hydroxy-N-[4-(8-methoxy-1-methyl-[1,2,4]triazolo[4,3-a]quinoxaline-4-ylamino)-butyl]-3-methyl-butyramide]
17 | ≤ 0.05 | 0.042 µM | Cc1nnc2c(NCCCCNC(=O)OC(C)(C)C)nc3cc(C(=O)NC(C)(C)C)ccc3n12 [Example 203, [4-(7-tert--butylcarbamoyl-1-methyl-[1,2,4]triazolo[4,3-a]quinoxaline-4-ylamino)-butyl]-carbamic acid-tert-butylester]
18 | ≤ 0.05 | 0.096 µM and 0.027 µM | COc1ccc2c(c1)nc(NCCCCNC(=O)C(C)(C)OC(C)=O)c1nnc(C)n12 [Example 296, acetic acid-1-[4-(7-methoxy-1-methyl-[1,2,4]triazolo[4,3-a]quinoxaline-4-ylamino)-butylcarbamoyl]-1-methyl-ethylester]
19 | ≤ 0.05 | 0.03 µM | CC(=O)OCC(=O)NCCCCNc1nc2cc3c(cc2n2c(C)nnc12)OCCO3 [Example 184]
20 | ≤ 0.05 | 0.012 µM | COc1cc2nc(NCCCCNC(=O)[C@H](O)C(C)C)c3nnc(C)n3c2cc1OC [Example 82, N-[4-(7,8-dimethoxy-1-methyl-[1,2,4]triazolo[4,3-a]quinoxaline-4-ylamino)-butyl]-2-(R)-hydroxy-3-methyl-butyramide]
21 | – | 0.069 µM | Cc1nnc2c(NCCCCNC(=O)OC(C)(C)C)nc3ccc(C(=O)Nc4ccccc4)cc3n12 [Example 538, [4-(1-methyl-8-phenylcarbamoyl-[1,2,4]triazolo[4,3-a]quinoxaline-4-ylamino)-butyl]-carbamic acid-tert-butylester]
22 | ≤ 0.05 | 0.034 µM | CCOC(=O)CC(=O)NCCCCNc1nc2cc(OCCOC)ccc2n2c(C)nnc12 [Example 394, N-{4-[7-(2-methoxy-ethoxy)-1-methyl-[1,2,4]triazolo[4,3-a]quinoxaline-4-ylamino]-butyl}-malonamic acid ethylester]
23 | ≤ 0.05 | 0.033 µM | COc1ccc2c(c1)nc(NCCCCNC(=O)[C@@H](C)O)c1nnc(C)n12 [Example 295, 2-(R)-hydroxy-N-[4-(7-methoxy-1-methyl-[1,2,4]triazolo[4,3-a]quinoxaline-4-ylamino)-butyl]-propaneamide]
24 | – | 0.065 µM | Cc1nnc2c(NCCCCNC(=O)C(C)(C)C)nc3ccc(NC(=O)C(C)C)cc3n12 [Example 545]
25 | ≤ 0.05 | 0.016 µM | COc1ccc2c(c1)nc(NCCCCNC(=O)OCC(C)C)c1nnc(C(C)C)n12 [Example 629, [4-(1-isopropyl-7-methoxy-[1,2,4]triazolo[4,3-a]quinoxaline-4-ylamino)-butyl]-carbamic acid isobutylester]
26 | ≤ 0.05 | 0.035 µM | COc1cc2nc(NCCCCNC(=O)SC(C)C)c3nnc(C)n3c2cc1OC [Example 110, [4-(7,8-dimethoxy-1-methyl-[1,2,4]triazolo[4,3-a]quinoxaline-4-ylamino)-butyl]-thiocarbamic acid-S-isopropylester]
